# PMC2362735, “New semisynthetic vinca alkaloids: chemical, biochemical and cellular studies” (British Journal of Cancer, 1999)
# Key:
# mouse leukaemia P388 = test system: mouse leukaemia P388; design: method as in Orosz et al, 1997a; conditions: ref Orosz et al, 1997a, cited from earlier work
# [1] = test system: tubulin/microtubule, PFK-bundled microtubules; experiment: Tubulin polymerization with or without PFK (bundled vs single microtubules): turbidity and pelleting with SDS-PAGE; assay type: biochemical, calf; conditions: 10 M tubulin, 2 M drug
# From the text: The numerous antimitotic drugs already developed and therapeu- tically used for a large number of pathologies belong to different classes based on their chemical structure and other distinctive features. Antimitotic drugs usually target the tubulin/microtubule network of the cytoskeleton that is formed by assembly of cyto- plasmic tubulin dimers. The stability of the different microtubular structures varies considerably; some of their functions depend on their lability. The lability is augmented by the extreme sensitivity to various drugs. Several synthetic and natural compounds interact specifically with tubulin and/or microtubule, fundamentally destroying its dynamic character and leading to cell death. […] Because of their extensive clinical use, it is important to synthesize additional agents having at least the same biological activity. […] Nevertheless, it is unclear yet how the anti-calmodulin activity of these drugs is related to their desired and undesired pharmacological effects. […] The synthesis of the KAR derivatives are presented. […] Taxol, GTP and trifluoperazine were purchased from Sigma. All organic reagents for synthesis of the new compounds were obtained from Aldrich and were of the highest grade. All other chemicals were reagent grade commercial preparations. […] Tubulin was stored in 1 M sucrose, 10 mM sodium phosphate buffer, 0.5 mM magnesium chloride and 0.1 mM GTP, pH 7.0, at -80C and dialysed against the appropriate buffer before use. […] PFK, aldolase and glycerol-3-phosphate dehydrogenase- triosephosphate isomerase purified from rabbit skeletal muscle were purchased in ammonium sulphate suspensions from Sigma or Boehringer. The enzyme suspensions were centrifuged at 10 000g for 5 min. The pellets were suspended in the appropriate buffer, then the enzymes were gel filtered or dialysed in the same buffer to remove ammonium sulphate. […] (Figure 1B; R1 , CH3; R2 , CH2 CH2 Cl). […] After 2 h incubation at room temperature, 200 ml dried toluene was added to the reaction mixture. […] The mixture was stirred for 30 min. After separation of the organic phase, it was washed with water (3 x 30 ml) and dried with potassium sulphate and evaporated on a water bath of 35-40C at 20-27 hPa. The resulting material was chromatographed on silica gel (500 g, bead size of 0.040- 0.063 mm) column (30 mm x 500 mm) using ethyl acetate/ethanol (9:1) mixture as eluent. […] The mixture was kept for 4 h at room temperature and then evaporated on a water bath at 40C under a vacuum of 80 hPa to a final volume of 5-6 ml. […] (Figure 1B, R1 , CHO; R2 , CH2 CH2 Cl). […] Synthesis of KAR-4 [3-allyl-2,4-dioxo-3,5-spiro-oxazolidino- 4-deacetoxy-vinblastine] (Figure 1B; R1 , CH3; R2 , CH2 CH=CH2 ). […] NMR measurements were carried out on a Varian Unity plus-500 instrument (500 MHz for 1H and 125 MHz for 13C) in DMSO. Chemical shifts were determined relative to dTMS = 0.00 p.p.m. 1H and 13C signal assignments were verified by a concerted use of two-dimensional 1H-1H and 1H-13C shift correlation methods (DQFCOSY, HSQC, HMBC) and NOESY experiments. The gradient-enhanced DQFCOSY, HSQC, HMBC and NOESY experiments were recorded by using the standard spectrometer software package. A mixing time of tmix = 0.5 s was used for the NOESY experiments. […] Mass spectrum was recorded on a Kratos MS 80 instrument using FAB.
# [2] = test system: Mouse leukaemia P388 cells; experiment: In vivo anti-tumour effect on P388 mouse leukaemia, single i.p. dose; conditions: P388 mice, single dose i.p.
# From the text: (§1) The numerous antimitotic drugs already developed and therapeu- tically used for a large number of pathologies belong to different classes based on their chemical structure and other distinctive features. Antimitotic drugs usually target the tubulin/microtubule network of the cytoskeleton that is formed by assembly of cyto- plasmic tubulin dimers. The stability of the different microtubular structures varies considerably; some of their functions depend on their lability. The lability is augmented by the extreme sensitivity to various drugs. Several synthetic and natural compounds interact specifically with tubulin and/or microtubule, fundamentally destroying its dynamic character and leading to cell death. […] Because of their extensive clinical use, it is important to synthesize additional agents having at least the same biological activity. […] Nevertheless, it is unclear yet how the anti-calmodulin activity of these drugs is related to their desired and undesired pharmacological effects. […] The synthesis of the KAR derivatives are presented. […] Taxol, GTP and trifluoperazine were purchased from Sigma. All organic reagents for synthesis of the new compounds were obtained from Aldrich and were of the highest grade. All other chemicals were reagent grade commercial preparations. […] Tubulin was stored in 1 M sucrose, 10 mM sodium phosphate buffer, 0.5 mM magnesium chloride and 0.1 mM GTP, pH 7.0, at -80C and dialysed against the appropriate buffer before use. […] PFK, aldolase and glycerol-3-phosphate dehydrogenase- triosephosphate isomerase purified from rabbit skeletal muscle were purchased in ammonium sulphate suspensions from Sigma or Boehringer. The enzyme suspensions were centrifuged at 10 000g for 5 min. The pellets were suspended in the appropriate buffer, then the enzymes were gel filtered or dialysed in the same buffer to remove ammonium sulphate. […] (Figure 1B; R1 , CH3; R2 , CH2 CH2 Cl). […] After 2 h incubation at room temperature, 200 ml dried toluene was added to the reaction mixture. […] The mixture was stirred for 30 min. After separation of the organic phase, it was washed with water (3 x 30 ml) and dried with potassium sulphate and evaporated on a water bath of 35-40C at 20-27 hPa. The resulting material was chromatographed on silica gel (500 g, bead size of 0.040- 0.063 mm) column (30 mm x 500 mm) using ethyl acetate/ethanol (9:1) mixture as eluent. […] The mixture was kept for 4 h at room temperature and then evaporated on a water bath at 40C under a vacuum of 80 hPa to a final volume of 5-6 ml. […] (Figure 1B, R1 , CHO; R2 , CH2 CH2 Cl). […] Synthesis of KAR-4 [3-allyl-2,4-dioxo-3,5-spiro-oxazolidino- 4-deacetoxy-vinblastine] (Figure 1B; R1 , CH3; R2 , CH2 CH=CH2 ). […] NMR measurements were carried out on a Varian Unity plus-500 instrument (500 MHz for 1H and 125 MHz for 13C) in DMSO. Chemical shifts were determined relative to dTMS = 0.00 p.p.m. 1H and 13C signal assignments were verified by a concerted use of two-dimensional 1H-1H and 1H-13C shift correlation methods (DQFCOSY, HSQC, HMBC) and NOESY experiments. The gradient-enhanced DQFCOSY, HSQC, HMBC and NOESY experiments were recorded by using the standard spectrometer software package. A mixing time of tmix = 0.5 s was used for the NOESY experiments.
# tubulin = experiment: Taxol-induced tubulin polymerization, turbidity at 350 nm; assay type: biochemical, calf; conditions: taxol-induced assembly, MES buffer pH 6.8, 37C; average of three independent measurements; read-out: Anti-tubulin effect, turbidity at 350 nm, IC50
# From the text: as §1
compound,measurement,setting,value
"CC[C@]1(O)C[C@@H]2CN(CCc3c([nH]c4ccccc34)[C@@](C(=O)OC)(c3cc4c(cc3OC)N(C)[C@@H]3[C@]45CCN4CC=C[C@@](CC)(C[C@@]36OC(=O)N(CCCl)C6=O)[C@H]45)C2)C1 [KAR-2, 3′-(β-chloroethyl)-2′,4′-dioxo-3,5′-spiro-oxazolidino-4-deacetoxy-vinblastine]",T/C,"mouse leukaemia P388; P388, 1 mg kg-1, eightfold treatment",174%
same,neurotoxic side-effects (e.g. paralysis of bladder or lower extremities),mouse leukaemia P388; P388 in vivo tests,did not induce neurotoxic side-effects
same,"tubulin partition in pelleting experiment, without PFK","[1]; 20 µM taxol, no PFK, SDS-PAGE of supernatant and pellet",practically all tubulin appears in the super- natants
same,"tubulin partition in pelleting experiment, with PFK (bundled microtubules)","[1]; 2 M PFK, 20 µM taxol, SDS-PAGE of supernatant and pellet",virtually no depolymer- izing effect
same,tubulin assembly by turbidity in the presence of PFK,"[1]; 2 M PFK, turbidity at 350 nm",PFK can overcome the inhibitory effect of KAR-2 on tubulin polymerization
same,maximal tolerated dose,[2],80 mg/kg
same,IC50,tubulin,200 nM
